Experimental data taken from ChEMBL document CHEMBL3400142, “Synthesis of nitro(benzo)thiazole acetamides and in vitro antiprotozoal effect against amitochondriate parasites Giardia intestinalis and Trichomonas vaginalis” (Bioorg Med Chem, 2015).

Key:
[1] = Cytotoxicity against African green monkey Vero cells after 48 hrs by MTT assay; format: cell-based; settings: chlorocebus sabaeus
Giardia intestinalis [2] = test: Giardicidal activity against Giardia intestinalis IMSS:0696:1 compound treated for 48 hrs followed by incubation for 48 hrs in compound-free medium by cell counting; format: functional, organism-based; settings: Giardia duodenalis, IMSS:0696:1, 48 h
Giardia duodenalis [3] = test: Inhibition of Giardia intestinalis fructose 1,6-bisphosphate aldolase at 400 nM after 2 hrs by spectrophotometry
Trichomonas vaginalis [4] = test: Trichomonicidal activity against Trichomonas vaginalis GT3 compound treated for 48 hrs followed by incubation for 48 hrs in compound-free medium by cell counting; format: functional, organism-based; settings: GT3, 48 h
Giardia intestinalis [5] = test: Ratio of nitazoxanide IC50 to compound IC50 for Giardia intestinalis IMSS:0696:1 compound treated for 48 hrs followed by incubation for 48 hrs in compound-free medium by cell counting; format: functional, Giardia duodenalis
Giardia duodenalis [6] = test: Ratio of nitazoxanide IC50 to compound IC50 for Giardia intestinalis fructose 1,6-bisphosphate aldolase at 400 nM after 2 hrs by spectrophotometry
[7] = Selectivity index, ratio of CC50 for african green monkey Vero cells to IC50 for Giardia intestinalis IMSS:0696:1; format: functional
Giardia intestinalis [8] = test: Ratio of metronidazole IC50 to compound IC50 for Giardia intestinalis IMSS:0696:1 compound treated for 48 hrs followed by incubation for 48 hrs in compound-free medium by cell counting; format: functional, Giardia duodenalis
Trichomonas vaginalis [9] = test: Ratio of metronidazole IC50 to compound IC50 for Trichomonas vaginalis GT3 compound treated for 48 hrs followed by incubation for 48 hrs in compound-free medium by cell counting; format: functional
Trichomonas vaginalis [10] = test: Ratio of nitazoxanide IC50 to compound IC50 for Trichomonas vaginalis GT3 compound treated for 48 hrs followed by incubation for 48 hrs in compound-free medium by cell counting; format: functional

| Compound | CC50 at 48 h [1] [µM] | IC50 (Giardia intestinalis [2]; read-out: IC50) [µM] | inhibition (Giardia duodenalis [3]) [%] | IC50 (Trichomonas vaginalis [4]) [µM] | Ratio IC50 (Giardia intestinalis [5]) | Ratio IC50 (Giardia duodenalis [6]) | Ratio CC50/IC50 [7] | Ratio IC50 (Giardia intestinalis [8]) | IC50 (Giardia intestinalis [2]; read-out: pIC50 (converted)) [µM] | Ratio IC50 (Trichomonas vaginalis [9]) | Ratio IC50 (Trichomonas vaginalis [10]) |
| --- | --- | --- | --- | --- | --- | --- | --- | --- | --- | --- | --- |
| CCN(CC)CC(=O)Nc1nc2ccc([N+](=O)[O-])cc2s1 | > 1000 | 2.03 | -0 | 3.21 | – | – | – | – | – | – | – |
| O=C(CN1CCCCC1)Nc1nc2ccc([N+](=O)[O-])cc2s1 | > 1000 | 2.31 | -0 | 3.43 | – | – | – | – | – | – | – |
| CCN(CC)CC(=O)Nc1ncc([N+](=O)[O-])s1 | > 1000 | 0.122 | 66 | 2.25 | 10 | 2 | 8196 | 44 | 0.123 | – | – |
| O=C(Nc1ncc([N+](=O)[O-])s1)c1ccccc1O [TIZOXANIDE] | 388 | – | 25 | – | – | – | – | – | – | – | – |
| Nc1nc2ccc([N+](=O)[O-])cc2s1 | 607 | 24.4 | -0 | 0.625 | – | – | – | – | – | 13 | 3 |
| Nc1ncc([N+](=O)[O-])s1 | – | – | -0 | – | – | – | – | – | – | – | – |
| O=C(CN1CCOCC1)Nc1nc2ccc([N+](=O)[O-])cc2s1 | > 1000 | 3.35 | 35 | 0.331 | – | – | – | – | – | – | – |
| O=C(CN1CCCC1)Nc1nc2ccc([N+](=O)[O-])cc2s1 | > 1000 | 0.298 | 10 | 0.221 | – | – | – | – | – | – | – |
| O=C(CN1CCOCC1)Nc1ncc([N+](=O)[O-])s1 | > 1000 | 0.151 | 54 | 0.305 | 8 | 2 | 6622 | 35 | 0.151 | – | – |
| CC(=O)Oc1ccccc1C(=O)Nc1ncc([N+](=O)[O-])s1 | – | – | 31 | – | – | – | – | – | – | – | – |
| O=C(CN1CCCCC1)Nc1ncc([N+](=O)[O-])s1 | > 1000 | 0.219 | 5 | 2.04 | – | – | – | – | – | – | – |
| Cc1ncc([N+](=O)[O-])n1CCO [METRONIDAZOLE] | 367 | – | – | – | – | – | – | – | – | – | – |
| O=C(CN1CCCC1)Nc1ncc([N+](=O)[O-])s1 | > 1000 | 0.178 | 21 | 6.1 | 5 | – | – | 24 | – | – | – |
| CC(=O)Nc1ncc([N+](=O)[O-])s1 [NITHIAMIDE] | > 1000 | – | -0 | – | – | – | – | – | – | – | – |
